# Results as given in US20020035061A1, “COMPOSITIONS AND METHODS FOR TREATING INFECTIONS USING CATIONIC PEPTIDES ALONE OR IN COMBINATION WITH ANTIBIOTICS” (priority 1996, published 2002).
# Key:
# Assay in all cases: microbe, parasite or virus in culture
# Format in all cases: cell-based
# bacterial isolates = test system: bacterial isolates
# [1] = test system: inherently resistant microorganisms; details: B. cepacia
# [2] = test system: microorganisms with acquired resistance
# [3] = test system: vancomycin / teicoplanin resistant enterococci; details: for Vancomycin MIC + Peptide: in combination with the labelled peptide; for Peptide MIC + Vancomycin: in combination with vancomycin
# S. aureus = S. aureus SA25
sequence,measurement,setting,value
KWKSFIKKLTSAAKKVLTTGLPALIS [MBI 29A3],Peptide MIC Alone,"bacterial isolates; 1. Amikacin, B. cepacia BC003",>128 µg/mL
same,Peptide MIC Alone,"bacterial isolates; 1. Amikacin, B. cepacia BC005",>128 µg/mL
same,Peptide MIC Alone,"bacterial isolates; 1. Amikacin, E. faecium EFM004",8 µg/mL
same,Peptide MIC Alone,"bacterial isolates; 1. Amikacin, S. maltophilia SMA036",64 µg/mL
same,Peptide MIC Alone,"bacterial isolates; 1. Amikacin, S. maltophilia SMA063",8 µg/mL
same,Peptide MIC Alone,"bacterial isolates; 1. Amikacin, S. maltophilia SMA064",8 µg/mL
same,Peptide MIC Alone,"bacterial isolates; 4. Gentamicin, S. maltophilia SMA019",2 µg/mL
same,Peptide MIC Alone,"bacterial isolates; 4. Gentamicin, S. maltophilia SMA021",2 µg/mL
same,Amikacin MIC + Peptide,bacterial isolates; B. cepacia BC003,8 µg/mL
same,Peptide MIC + Amikacin,bacterial isolates; B. cepacia BC003,64 µg/mL
same,Amikacin MIC + Peptide,bacterial isolates; B. cepacia BC005,32 µg/mL
same,Peptide MIC + Amikacin,bacterial isolates; B. cepacia BC005,32 µg/mL
same,Peptide MIC + Vancomycin,bacterial isolates; E. faecalis EFS003,2 µg/mL
same,Vancomycin MIC + Peptide,bacterial isolates; E. faecalis EFS003,2 µg/mL
same,Peptide MIC + Vancomycin,bacterial isolates; E. faecalis EFS005,1 µg/mL
same,Vancomycin MIC + Peptide,bacterial isolates; E. faecalis EFS005,4 µg/mL
same,Peptide MIC + Vancomycin,bacterial isolates; E. faecalis EFS011,8 µg/mL
same,Vancomycin MIC + Peptide,bacterial isolates; E. faecalis EFS011,4 µg/mL
same,Peptide MIC + Vancomycin,bacterial isolates; E. faecalis EFS014,0.5 µg/mL
same,Vancomycin MIC + Peptide,bacterial isolates; E. faecalis EFS014,1 µg/mL
same,Amikacin MIC + Peptide,bacterial isolates; E. faecium EFM004,8 µg/mL
same,Peptide MIC + Amikacin,bacterial isolates; E. faecium EFM004,4 µg/mL
same,Peptide MIC + Vancomycin,bacterial isolates; E. faecium EFM006,2 µg/mL
same,Vancomycin MIC + Peptide,bacterial isolates; E. faecium EFM006,4 µg/mL
same,Mupirocin MIC + Peptide,bacterial isolates; P. aeruginosa PA2,0.1 µg/mL
same,Peptide MIC + Mupirocin,bacterial isolates; P. aeruginosa PA2,16 µg/mL
same,Mupirocin MIC + Peptide,bacterial isolates; P. aeruginosa PA3,0.1 µg/mL
same,Peptide MIC + Mupirocin,bacterial isolates; P. aeruginosa PA3,8 µg/mL
same,Peptide MIC + Tobramycin,bacterial isolates; P. aeruginosa PA022,0.25 µg/mL
same,Tobramycin MIC + Peptide,bacterial isolates; P. aeruginosa PA022,4 µg/mL
same,Ciprofloxacin MIC + Peptide,bacterial isolates; P. aeruginosa PA24,16 µg/mL
same,Peptide MIC + Ciprofloxacin,bacterial isolates; P. aeruginosa PA24,0.125 µg/mL
same,Peptide MIC + Tobramycin,bacterial isolates; P. aeruginosa PA028,0.125 µg/mL
same,Tobramycin MIC + Peptide,bacterial isolates; P. aeruginosa PA028,16 µg/mL
same,Peptide MIC + Tobramycin,bacterial isolates; P. aeruginosa PA029,0.125 µg/mL
same,Tobramycin MIC + Peptide,bacterial isolates; P. aeruginosa PA029,16 µg/mL
same,Ciprofloxacin MIC + Peptide,bacterial isolates; P. aeruginosa PA41,0.5 µg/mL
same,Peptide MIC + Ciprofloxacin,bacterial isolates; P. aeruginosa PA41,4 µg/mL
same,Ciprofloxacin MIC + Peptide,bacterial isolates; S. aureus SA10,16 µg/mL
same,Peptide MIC + Ciprofloxacin,bacterial isolates; S. aureus SA10,0.5 µg/mL
same,Ciprofloxacin MIC + Peptide,bacterial isolates; S. aureus SA25,2 µg/mL
same,Peptide MIC + Ciprofloxacin,bacterial isolates; S. aureus SA25,0.125 µg/mL
same,Gentamicin MIC + Peptide,bacterial isolates; S. maltophilia SMA019,16 µg/mL
same,Peptide MIC + Gentamicin,bacterial isolates; S. maltophilia SMA019,0.125 µg/mL
same,Gentamicin MIC + Peptide,bacterial isolates; S. maltophilia SMA021,16 µg/mL
same,Peptide MIC + Gentamicin,bacterial isolates; S. maltophilia SMA021,0.125 µg/mL
same,Peptide MIC + Tobramycin,bacterial isolates; S. maltophilia SMA029,4 µg/mL
same,Tobramycin MIC + Peptide,bacterial isolates; S. maltophilia SMA029,4 µg/mL
same,Peptide MIC + Tobramycin,bacterial isolates; S. maltophilia SMA030,4 µg/mL
same,Tobramycin MIC + Peptide,bacterial isolates; S. maltophilia SMA030,4 µg/mL
same,Amikacin MIC + Peptide,bacterial isolates; S. maltophilia SMA036,32 µg/mL
same,Peptide MIC + Amikacin,bacterial isolates; S. maltophilia SMA036,16 µg/mL
same,Amikacin MIC + Peptide,bacterial isolates; S. maltophilia SMA063,16 µg/mL
same,Peptide MIC + Amikacin,bacterial isolates; S. maltophilia SMA063,4 µg/mL
same,Amikacin MIC + Peptide,bacterial isolates; S. maltophilia SMA064,16 µg/mL
same,Peptide MIC + Amikacin,bacterial isolates; S. maltophilia SMA064,4 µg/mL
same,Mupirocin MIC + Peptide,bacterial isolates; S. marcescens SBSM1,100 µg/mL
same,Peptide MIC + Mupirocin,bacterial isolates; S. marcescens SBSM1,16 µg/mL
same,Mupirocin MIC + Peptide,bacterial isolates; S. marcescens SBSM2,100 µg/mL
same,Peptide MIC + Mupirocin,bacterial isolates; S. marcescens SBSM2,64 µg/mL
same,FIC,"bacterial isolates; peptide + Amikacin, B. cepacia BC003",0.50
same,FIC,"bacterial isolates; peptide + Amikacin, B. cepacia BC005",0.38
same,FIC,"bacterial isolates; peptide + Amikacin, E. faecium EFM004",0.56
same,FIC,"bacterial isolates; peptide + Amikacin, S. maltophilia SMA036",0.38
same,FIC,"bacterial isolates; peptide + Amikacin, S. maltophilia SMA063",0.56
same,FIC,"bacterial isolates; peptide + Amikacin, S. maltophilia SMA064",0.56
same,FIC,"bacterial isolates; peptide + Ciprofloxacin, P. aeruginosa PA24",0.50
same,FIC,"bacterial isolates; peptide + Ciprofloxacin, P. aeruginosa PA41",0.63
same,FIC,"bacterial isolates; peptide + Ciprofloxacin, S. aureus SA10",0.75
same,FIC,"bacterial isolates; peptide + Ciprofloxacin, S. aureus SA25",0.63
same,FIC,"bacterial isolates; peptide + Mupirocin, P. aeruginosa PA2",0.50
same,FIC,"bacterial isolates; peptide + Mupirocin, P. aeruginosa PA3",0.50
same,FIC,"bacterial isolates; peptide + Mupirocin, S. marcescens SBSM1",0.16
same,FIC,"bacterial isolates; peptide + Mupirocin, S. marcescens SBSM2",0.35
same,FIC,"bacterial isolates; peptide + Vancomycin, E. faecalis EFS003",0.56
same,FIC,"bacterial isolates; peptide + Vancomycin, E. faecalis EFS005",0.28
same,FIC,"bacterial isolates; peptide + Vancomycin, E. faecalis EFS011",0.50
same,FIC,"bacterial isolates; peptide + Vancomycin, E. faecalis EFS014",0.52
same,FIC,"bacterial isolates; peptide + Vancomycin, E. faecium EFM006",0.52
same,Peptide MIC + Amikacin,[1],32 µg/mL
same,Peptide MIC Alone,[1]; Amikacin section,>128 µg/mL
same,Gentamicin MIC + Peptide,[2]; A. baumannii ABI002,4 µg/mL
same,Peptide MIC + Gentamicin,[2]; A. baumannii ABI002,1 µg/mL
same,Peptide MIC Alone,"[2]; A. baumannii ABI002, Gentamicin section",2 µg/mL
same,Peptide MIC + Tobramycin,[2]; E. coli EC0006,2 µg/mL
same,Tobramycin MIC + Peptide,[2]; E. coli EC0006,2 µg/mL
same,Peptide MIC Alone,"[2]; E. coli EC0006, Tobramycin section",4 µg/mL
same,Peptide MIC + Tobramycin,[2]; P. aeruginosa PA022,0.25 µg/mL
same,Tobramycin MIC + Peptide,[2]; P. aeruginosa PA022,4 µg/mL
same,Peptide MIC Alone,"[2]; P. aeruginosa PA022, Tobramycin section",4 µg/mL
same,Gentamicin MIC + Peptide,[2]; P. aeruginosa PA041,4 µg/mL
same,Peptide MIC + Gentamicin,[2]; P. aeruginosa PA041,4 µg/mL
same,Ciprofloxacin MIC + Peptide,[2]; P. aeruginosa PA41,0.5 µg/mL
same,Peptide MIC + Ciprofloxacin,[2]; P. aeruginosa PA41,4 µg/mL
same,Peptide MIC Alone,"[2]; P. aeruginosa PA41, Ciprofloxacin section",8 µg/mL
same,Peptide MIC Alone,"[2]; P. aeruginosa PA041, Gentamicin section",8 µg/mL
same,Peptide MIC,"[2]; S. aureus, combination with Mupirocin, in µg/mL",4
same,Peptide MIC + Tobramycin,[2]; S. maltophilia SMA027,16 µg/mL
same,Tobramycin MIC + Peptide,[2]; S. maltophilia SMA027,4 µg/mL
same,Peptide MIC Alone,"[2]; S. maltophilia SMA027, Tobramycin section",32 µg/mL
same,Peptide MIC + Tobramycin,[2]; S. maltophilia SMA029,4 µg/mL
same,Tobramycin MIC + Peptide,[2]; S. maltophilia SMA029,4 µg/mL
same,Peptide MIC Alone,"[2]; S. maltophilia SMA029, Tobramycin section",16 µg/mL
same,FIC,"[2]; peptide + Tobramycin, E. coli EC0006",0.75
same,Amikacin MIC + Peptide,[3]; E. faecium EFM004,8 µg/mL
same,Peptide MIC + Amikacin,[3]; E. faecium EFM004,4 µg/mL
same,Amikacin MIC + Peptide,[3]; E. faecium EFM020,16 µg/mL
same,Peptide MIC + Amikacin,[3]; E. faecium EFM020,2 µg/mL
same,Vancomycin MIC + Peptide,[3]; E. faecalis EFS005,1 µg/mL
same,Vancomycin MIC + Peptide,[3]; E. faecalis EFS011,4 µg/mL
same,Vancomycin MIC + Peptide,[3]; E. faecalis EFS014,1 µg/mL
same,Vancomycin MIC + Peptide,[3]; E. faecium EFM006,4 µg/mL
same,Peptide MIC + Vancomycin,[3]; E. faecalis EFS005,4 µg/mL
same,Peptide MIC + Vancomycin,[3]; E. faecalis EFS011,8 µg/mL
same,Peptide MIC + Vancomycin,[3]; E. faecalis EFS014,0.5 µg/mL
same,Peptide MIC + Vancomycin,[3]; E. faecium EFM006,2 µg/mL
same,Ciprofloxacin MIC + Peptide,S. aureus,1 µg/mL
same,Peptide MIC + Ciprofloxacin,S. aureus,0.5 µg/mL
